Results on 14 compounds are retold here after patent US5565483A, “3-substituted oxindole derivatives as potassium channel modulators” (Bristol-Myers Squibb Company, priority 1995, dated 1996).

The first assay has as its system cloned mammalian (mSIo or hSIo) BK channels. Description: Increase of cloned BK-mediated outward current in Xenopus oocytes, two-electrode voltage clamp. The assay is classed as cell-based. Conditions: at 20 μM; at least 5 oocytes; mSIo or hSIo expressed in Xenopus oocytes. The method, then: The ability of compounds described in the present invention to open BK channels and increase whole-cell outward (K^+) BK-mediated currents was assessed under voltage-clamp conditions by determining their ability to increase cloned mammalian (mSIo or hSIo) BK--mediated outward current heterologously expressed in Xenopus oocytes [Butler, A., et al., Science, 261:221-224 (1993); and Dworetzky, S. I., etal., Mol. Brain Res., 27: 189-193 (1994)]. The two BK constructs employed represent nearly structurally identical homologous proteins, and have proven to be pharmacologically identical in our tests. To isolate BK current from native (background, non-BK) current, the specific and potent BK channel-blocking toxin iberiotoxin (IBTX) [Galvez, A., et al., J. Biol. Chem. 265:11083-11090 (1990)] was employed at a supramaximal concentration (50 nM). The relative contribution of BK channels current to total outward current was determined by subtraction of the current remaining in the presence of IBTX (non-BK current) from the current profiles obtained in all other experimental conditions (control, drug, and wash). […] All compounds were tested in at least 5 oocytes and are reported at the single concentration of 20 uM; the effect of the selected compounds of Formula I on BK current was expressed as the percent of control IBTX-sensitive current and is listed in Table I. Recordings were accomplished using standard two-electrode voltage clamp techniques [Stuhmer, W., et al., Methods in Enzymology, Vol. 207:319-339 (1992)]; voltage-clamp protocols consisted of 500-750 ms duration step depolarizations from a holding potential of -60 mV to +140 mV in 20 mV steps. The experimental media (modified Barth's solution) consisted of (in mM): NaCl (88), NaHCO3 (2.4), KCl (1.0), HEPES (10), MgSO4 (0.82), Ca(NO3)2 (0.33), CaCl2 (0.41); pH 7.5.
On the technique in general: Two-electrode voltage clamp holds a large cell at a set potential and records current.
For the compound `COc1ccc(Cl)cc1C1(O)C(=O)Nc2cc(C(F)(F)F)ccc21` (racemic) [Example 1, (±)-3-(5-Chloro-2-methoxyphenyl)-1,3-dihydro-3-hydroxy-6-(trifluoromethyl)-2H-indol-2-one], the “BK Current, percent of control IBTX-sensitive current” value (shortened to “BK Current, percent”) was “+ (+ = 100-125%)”.
On the same count and under the same terms, to `O=C1Nc2cc(C(F)(F)F)ccc2C1(O)c1cc(Cl)ccc1O` (racemic) [Example 3, (±)-3-(5-Chloro-2-hydroxyphenyl)-1,3-dihydro-3-hydroxy-6-(trifluoromethyl)-2H-indol-2-one] belongs “++ (++ = 125-150%)”.
The same measure, in the same setting: the entry for `O=C1Nc2cc(C(F)(F)F)ccc2C1c1cc(Cl)ccc1O` (racemic) [Example 4, (±)-3-(5-Chloro-2-hydroxyphenyl)-1,3-dihydro-6-(trifluoromethyl)-2H-indol-2-one] is “+++ (+++ = >150%)”; for `O=C1Nc2cc(Cl)cc(Cl)c2C1(O)c1cc(Cl)ccc1O` (racemic) [Example 6, (±)-3-(5-Chloro-2-dhydroxyphenyl)-4,6-dichloro-1,3-dihydro-3-hydroxy-2-H-indol-2-one] it is “+ (+ = 100-125%)”.
The same measure, in the same setting: the entry for `O=C1Nc2c(C(F)(F)F)cccc2C1(O)c1cc(Cl)ccc1O` (racemic) [Example 7, (±)-3-(5-Chloro-2-hydroxyphenyl)-1,3-dihydro-3-hydroxy-7-(trifluoromethyl)-2H-indol-2-one] is “+ (+ = 100-125%)”; for `O=C1Nc2cc(C(F)(F)F)ccc2C1(O)c1cc(C(F)(F)F)ccc1O` (racemic) [Example 9, (±)-1,3-Dihydro-3-hydroxy-3-[2-hydroxy-5-(trifluoromethyl)phenyl]-6-(trifluoromethyl)-2H-indol-2-one] it is “++ (++ = 125-150%)”.
Take `COc1ccc(Cl)cc1C1(F)C(=O)Nc2cc(C(F)(F)F)ccc21` (racemic) [Example 14, (±)-3-(5-Chloro-2-methoxyphenyl)-1,3-dihydro-3-fluoro-6-(trifluoromethyl)-2H-indol-2-one]: the “BK Current, percent” value is given as “++ (++ = 125-150%)”.
On the same count and under the same terms, the entry for `O=C1Nc2c(ccc3ccccc23)C1(O)c1cc(Cl)ccc1O` (racemic) [Example 15, (±)-3-(5-Chloro-2-hydroxyphenyl)-1,3-dihydro-3-hydroxy-2H-benz[g]indol-2-one] is “+++ (+++ = >150%)”; for `O=C1Nc2cc(-c3ccccc3)ccc2C1c1cc(Cl)ccc1O` (racemic) [Example 16, (±)-3-(5-Chloro-2-hydroxyphenyl)-1,3-dihydro-6-phenyl-2H-indol-2-one] it is “+++ (+++ = >150%)”; for `O=C1Nc2ccc3ccccc3c2C1c1cc(Cl)ccc1O` (racemic) [Example 22, (±)-3-(5--Chloro-2-hydroxyphenyl)-1,3-dihydro-2H-benz[e]indol-2-one] it is “+++ (+++ = >150%)”.
Still for that read-out and setting: to `COc1ccc(Cl)cc1C1(F)C(=O)Nc2ccc(F)cc21` (racemic) [Example 25, (±)-3-(5-Chloro-2-methoxyphenyl)-1,3-dihydro-3,5-difluoro-2H-indol-2-one] belongs “+ (+ = 100-125%)”.
With `O=C1Nc2cc(Cl)cc(Cl)c2C1c1cc(Cl)ccc1O` (racemic) [Example 31, (±)-3-(5-Chloro-2-hydroxyphenyl)-4,6-dichloro-1,3-dihydro-2H-indol-2-one], the “BK Current, percent” value was “+ (+ = 100-125%)”.
Same read-out and setting: to `O=C1Nc2cc(I)ccc2C1c1cc(Cl)ccc1O` (racemic) [Example 33, (±)-3-(5-Chloro-2-hydroxyphenyl)-1,3-dihydro-6-iodo-2H-indol-2-one] belongs “+++ (+++ = >150%)”.
With `O=C1Nc2cc(C(F)(F)F)ccc2C1(O)c1cc(Cl)ccc1O` (single isomer, unassigned; (-)) [Example 13, (-)-3-(5-Chloro-2-hydroxyphenyl)-1,3-dihydro-3-hydroxy-6-(trifluoromethyl)-2H-indol-2-one], the “BK Current, percent” value was “++ (++ = 125-150%)”.

A further assay deals with cortical infarct volume after MCAO. Nature of the assay: Permanent middle cerebral artery occlusion (MCAO) focal stroke model. Conditions: intraparitoneally 10 mg/kg, single bolus 2 hours after MCAO; infarct measured 24 hours after MCAO; vs vehicle-treated control. The assay is classed as in vivo, spontaneously hypertensive rat. From the text: To determine the ability of these compounds to reduce cell loss resulting from neuronal ischemia, a standard rodent model of permanent focal ischemia, involving occlusion of the middle cerebral artery in the spontaneously hypertensive rat (MCAO model) was employed [Tamura, A., et al., Journal of Cerebral Blood Flow and Metabolism, Volume 1, 53-60, (1981)].
Selected compounds have been evaluated in the focal stroke model involving permanent middle cerebral artery occlusion (MCAO) in the spontaneously hypertensive rat. This procedure results in a reliably large neocortical infarct volume that is measured by means of vital dye exclusion in serial slices through the brain 24 hours after MCAO. In the present test, compounds were administered using an i.v. or […]. route of administration at two hours after occlusion.
`O=C1Nc2cc(C(F)(F)F)ccc2C1c1cc(Cl)ccc1O` (racemic) [Example 4, (±)-3-(5-Chloro-2-hydroxyphenyl)-1,3-dihydro-6-(trifluoromethyl)-2H-indol-2-one]: the “reduction of cortical infarct volume” value was “about 26%”.

The same assay, now with this note: intravenously 0.03 mg/kg, single bolus 2 hours after MCAO; infarct measured 24 hours after MCAO; vs vehicle-treated control.
With `O=C1Nc2cc(C(F)(F)F)ccc2C1c1cc(Cl)ccc1O` (racemic) [Example 4, (±)-3-(5-Chloro-2-hydroxyphenyl)-1,3-dihydro-6-(trifluoromethyl)-2H-indol-2-one], the “reduction of cortical infarct volume” value is on record as “about 18%”.
